Publication PMC8772704, “Quantification of Fosfomycin in Combination with Nine Antibiotics in Human Plasma and Cation-Adjusted Mueller-Hinton II Broth via LCMS” (Antibiotics, 2022)

Assays:
[1] = Plasma concentrations in four patients on fosfomycin-based combination therapy (pilot clinical feasibility study, LCMS/MS); conditions: four patients, samples measured in triplicates
Protocol: For 20 µL of plasma/CAMHB sample, 20 µL of water and 20 µL of stable-isotope as internal standard (IS) were added and vortexed. 180 µL of acetonitrile was added for protein precipitation and subsequently removed by centrifugation (12,700 rpm for 10 min at 25 °C). Finally, 15 µL of the supernatant was diluted with 225 µL formic acid in water (0.1% v/v), and 10 µL was injected for LCMS/MS analysis. For the calibration curve and QCs, 20 µL of the corresponding antibiotic standard working solution was added instead of water.
Samples were analyzed using a Nexera X2 LCMS 8060 system (Shimadzu, Kyoto, Japan). […] Electrospray ionization employing positive and negative ion mode with multiple reaction monitoring was used for analyte quantification (Table S1). Data were acquired and analyzed using Shimadzu LabSolutions (Version 5.97).
The assay method described in this paper has been applied to a pilot clinical feasibility study to evaluate the proportion of patients with sub-optimal β-lactam levels and the need for dose adjustments in infected patients with unpredictable pharmacokinetics. We described a case series of four patients where they received in vitro guided antibiotic combination therapy using a fosfomycin-based combination regimen to treat a carbapenem-resistant Gram-negative bacteria infection. These four patients were recruited into the BLAST-2 study as the combination regimen contains a β-lactam antibiotic. In this case series, two were undergoing intermittent hemodialysis, and two patients had normal renal function. In the two patients on hemodialysis, they were on a dosing regimen of 8 g of fosfomycin on dialysis days (3 g at least 4 h before dialysis session and 5 g after completion of dialysis). The remaining two patients received 8 g of fosfomycin given every 8 h as a prolonged infusion.
Blood samples (2–3 mL from an indwelling catheter) were collected four times over a dosing interval of the β-lactam dosing regimen and centrifuged (10 min at 3000 rpm) (Eppendorf 5425R). The resultant plasma was stored (within 15 min of collection) at −80 °C until assay.

[2] = 32-day stability of stock solutions stored at −80 °C; assay type: physicochemical; conditions: stock solution stored at -80 °C; peak area Day 32 vs Day 1
Protocol: Stability of stock solutions
All stock solutions of antibiotics and their corresponding stable-isotope variants were measured prior to cold storage at -80 °C and tested at 32 days later.
Stability was determined by comparing the peak area of each drug between its Day 1 and Day 32 measurement. Acceptable criteria for stability was met if the […]

[3] = Autosampler stability at 4 °C of extracted antibiotic-spiked plasma/CAMHB samples; conditions: for Mean accuracy (%), Table S8 / Mean accuracy (%), Table S10: CAMHB extracted samples; for Mean accuracy (%), Table S8 / Mean accuracy (%), Table S7: 7 h autosampler 4 °C; for Mean accuracy (%), Table S10 / Mean accuracy (%), Table S9: 15 h autosampler 4 °C; for Mean accuracy (%), Table S7 / Mean accuracy (%), Table S9: plasma extracted samples
Protocol: (§1) The stability of fosfomycin in combination with other antibiotics in plasma/CAMHB was evaluated under various operational conditions. Spiked plasma/CAMHB samples were evaluated at 7 h and 15 h in the autosampler at 4 °C. Long-term stability was evaluated up to 4 weeks of antibiotic-spiked plasma/CAMHB samples at LQC, MQC, and HQC concentrations stored at −30 °C and −80 °C.

[4] = Long-term storage stability of antibiotics in combination with fosfomycin spiked in plasma/CAMHB (−30 °C, −80 °C); assay type: physicochemical; conditions: combination with fosfomycin; for Mean accuracy (%), Table S15 / Mean accuracy (%), Table S17 / Mean accuracy (%), Table S16 / Mean accuracy (%), Table S18: CAMHB; for Mean accuracy (%), Table S15 / Mean accuracy (%), Table S11: 2 weeks at -30 °C; for Mean accuracy (%), Table S17 / Mean accuracy (%), Table S13: 2 weeks at -80 °C; for Mean accuracy (%), Table S16 / Mean accuracy (%), Table S12: 4 weeks at -30 °C; for Mean accuracy (%), Table S18 / Mean accuracy (%), Table S14: 4 weeks at -80 °C; for Mean accuracy (%), Table S11 / Mean accuracy (%), Table S13 / Mean accuracy (%), Table S12 / Mean accuracy (%), Table S14: plasma
Protocol: as §1

SMILES: C[C@@H]1O[C@@H]1P(=O)(O)O [Fosfomycin, fosfomycin]
- Mean total plasma concentration (range) [1]: 11.3 to 746.9 mg/L
- 32 Day Stability (%) [2]: 95.80%
- Mean accuracy (%), Table S8 ([3]; HQC (nominal as E15)): 96.0%
- Mean accuracy (%), Table S8 ([3]; LQC (nominal as E13)): 107.1%
- Mean accuracy (%), Table S8 ([3]; MQC (nominal as E14)): 95.9%
- Mean accuracy (%), Table S10 ([3]; HQC (nominal as E15)): 95.6%
- Mean accuracy (%), Table S10 ([3]; LQC (nominal as E13)): 107.4%
- Mean accuracy (%), Table S10 ([3]; MQC (nominal as E14)): 94.8%
- Mean accuracy (%), Table S7 ([3]; HQC: nominal mg/L CAZ 150, FEP 200, PIP 250, ATM 300, MEM 200, DOR 175, LVX 30, CEFT 250, TZB 87.5, TGC 20, AVI 30, FOF 1000): 102.9%
- Mean accuracy (%), Table S7 ([3]; LQC: nominal 1 mg/L (levofloxacin, avibactam 0.5; fosfomycin 10)): 104.5%
- Mean accuracy (%), Table S7 ([3]; MQC: nominal mg/L CAZ 75, FEP 100, PIP 150, ATM 150, MEM 100, DOR 87.5, LVX 15, CEFT 125, TZB 43.75, TGC 10, AVI 15, FOF 500): 101.0%
- Mean accuracy (%), Table S9 ([3]; HQC (nominal as E15)): 101.4%
- Mean accuracy (%), Table S9 ([3]; LQC (nominal as E13)): 106.3%
- Mean accuracy (%), Table S9 ([3]; MQC (nominal as E14)): 101.8%
- Mean accuracy (%), Table S15 ([4]; HQC (nominal as E15)): 98.5%
- Mean accuracy (%), Table S15 ([4]; LQC (nominal as E13)): 103.1%
- Mean accuracy (%), Table S15 ([4]; MQC (nominal as E14)): 94.7%
- Mean accuracy (%), Table S17 ([4]; HQC (nominal as E15)): 96.3%
- Mean accuracy (%), Table S17 ([4]; LQC (nominal as E13)): 110.6%
- Mean accuracy (%), Table S17 ([4]; MQC (nominal as E14)): 99.5%
- Mean accuracy (%), Table S16 ([4]; HQC (nominal as E15)): 94.6%
- Mean accuracy (%), Table S16 ([4]; LQC (nominal as E13)): 103.6%
- Mean accuracy (%), Table S16 ([4]; MQC (nominal as E14)): 95.4%
- Mean accuracy (%), Table S18 ([4]; HQC (nominal as E15)): 101.8%
- Mean accuracy (%), Table S18 ([4]; LQC (nominal as E13)): 104.7%
- Mean accuracy (%), Table S18 ([4]; MQC (nominal as E14)): 98.2%
- Mean accuracy (%), Table S11 ([4]; HQC (nominal as E15)): 98.4%
- Mean accuracy (%), Table S11 ([4]; LQC (nominal as E13)): 102.2%
- Mean accuracy (%), Table S11 ([4]; MQC (nominal as E14)): 92.1%
- Mean accuracy (%), Table S13 ([4]; HQC (nominal as E15)): 95.6%
- Mean accuracy (%), Table S13 ([4]; LQC (nominal as E13)): 101.8%
- Mean accuracy (%), Table S13 ([4]; MQC (nominal as E14)): 94.6%
- Mean accuracy (%), Table S12 ([4]; HQC (nominal as E15)): 94.0%
- Mean accuracy (%), Table S12 ([4]; LQC (nominal as E13)): 104.5%
- Mean accuracy (%), Table S12 ([4]; MQC (nominal as E14)): 92.4%
- Mean accuracy (%), Table S14 ([4]; HQC (nominal as E15)): 97.7%
- Mean accuracy (%), Table S14 ([4]; LQC (nominal as E13)): 100.8%
- Mean accuracy (%), Table S14 ([4]; MQC (nominal as E14)): 90.6%
